Results published in patent US20250195530A1, “POLQ INHIBITORS” (ASTRAZENECA AB, priority 2022, published 2025).
Read-outs that look alike come from different tables or passages of the source.

Assays:
DLD-1 cells = experiment: Inhibition of proliferation, DLD-1 BRCA2 wt control (Cell Titre Glo 3D); assay type: cell-based; conditions: Homo sapiens
Method in brief: (§1)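 Proliferation of HR-deficient DLD-1 BRCA2−/− versus isogenic wild-type DLD-1 was measured by ATP luminescence (CellTiter-Glo 3D). Compound exposure lasted 12 or 7 days, respectively, with a fresh dose on day 6. IC50 was the concentration halving maximal signal.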

DLD-1 BRCA2−/− cells = experiment: Homologous recombination synthetic lethal inhibition of proliferation, DLD-1 BRCA2-/- (Cell Titre Glo 3D); assay type: cell-based; conditions: Homo sapiens
Method in brief: as §1

[1] = DLD-1, proliferation, luminescence, second Prolif column (c6), taken as DLD-1 BRCA2 wt control, read-out: POLQ PD Prolif Lumin (converted)
[2] = DLD-1, proliferation, luminescence, taken as DLD-1 BRCA2-/-, read-out: POLQ PD Prolif Lumin (converted)
[3] = DLD-1, 168 h, DLD-1 BRCA2 wt cells, 7 days, read-out: POLQ PD Prolif Lumin DLD1 mean pIC50 (converted)
[4] = DLD-1, 288 h, DLD-1 BRCA2−/− cells, 12 days, read-out: POLQ PD Prolif Lumin BRCA2 −/− mean pIC50 (converted)
[5] = DLD-1, second proliferation column (c6), taken as DLD-1 BRCA2 wt, read-out: POLQ PD Prolif Lumin (converted)
[6] = DLD-1, first proliferation column (c5), taken as DLD-1 BRCA2-/-, read-out: POLQ PD Prolif Lumin (converted)
[7] = DLD-1, second proliferation column (c6), DLD-1 BRCA2 wt control, read-out: POLQ PD Prolif Lumin (converted)
[8] = DLD-1, first proliferation column (c5), DLD-1 BRCA2-/-, read-out: POLQ PD Prolif Lumin (converted)

Row | SMILES | IC50 (DLD-1 cells; [3]) | IC50 (DLD-1 BRCA2−/− cells; [4]) | further results
1 | Cc1cnc(Cn2c(-c3cccc(OCCCN4CC[C@@H](O)C4)c3Cl)nc3c(OC4(C)CC4)ncnc32)s1 [Example T392, (R)-1-(3-(2-chloro-3-(6-(1-methylcyclopropoxy)-9-((5-methylthiazol-2-yl)methyl)-9H-purin-8-yl)phenoxy)propyl)pyrrolidin-3-ol] | – | – | IC50 (DLD-1 cells; [1]): 794 nM; IC50 (DLD-1 BRCA2−/− cells; [2]): 794 nM
2 | CC1(Oc2ncnc3c2nc(-c2ccc(OCCN4CC[C@@H](O)C4)cc2Cl)n3Cc2ccccc2)CC1 [Example H13, (R)-1-(2-(4-(9-benzyl-6-(1-methylcyclopropoxy)-9H-purin-8-yl)-3-chlorophenoxy)ethyl)pyrrolidin-3-ol] | 3160 nM | 100 nM | –
3 | CN1CCN(CCOc2cc(Cl)c(-c3nc4c(OC5(C)CC5)ncnc4n3Cc3ccccc3)cn2)CC1 [Example 20, 9-Benzyl-8-(4-chloro-6-(2-(4-methylpiperazin-1-yl)ethoxy)pyridin-3-yl)-6-(1-methylcyclopropoxy)-9H-purine] | 7940 nM | 398 nM | –
4 | COc1ccc(-c2nc3c(OC4(C)CC4)ncnc3n2Cc2ccccc2)c(Cl)c1 [Example N8, 9-Benzyl-8-(2-chloro-4-methoxyphenyl)-6-(1-methylcyclopropoxy)-9H-purine] | > 10000 nM | 251 nM | –
5 | Cc1ccnc(Cn2c(-c3ccc(CC(=O)NC4CC4)cc3Cl)nc3c(OC4(C)CC4)ncnc32)c1 [Example T310, 2-(3-chloro-4-(6-(1-methylcyclopropoxy)-9-((4-methylpyridin-2-yl)methyl)-9H-purin-8-yl)phenyl)-N-cyclopropylacetamide] | – | – | IC50 (DLD-1 cells; [5]): > 10000 nM; IC50 (DLD-1 BRCA2−/− cells; [6]): 398 nM
6 | CC1(Oc2ncnc3c2nc(-c2ccc(OCCN4C5CNCC4C5)cc2Cl)n3Cc2ccccc2)CC1 [Example R15, 6-(2-(4-(9-benzyl-6-(1-methylcyclopropoxy)-9H-purin-8-yl)-3-chlorophenoxy)ethyl)-3,6-diazabicyclo[3.1.1]heptane] | 5010 nM | 501 nM | –
7 | CCc1ccnc(Cn2c(-c3ccc(OCCN4CCNCC4)cc3Cl)nc3c(OC4(C)CC4)ncnc32)c1 [Example S4, 8-(2-chloro-4-(2-(piperazin-1-yl)ethoxy)phenyl)-9-((4-ethylpyridin-2-yl)methyl)-6-(1-methylcyclopropoxy)-9H-purine] | > 10000 nM | 794 nM | –
8 | COc1ccc(Cl)cc1Cn1c(-c2cccc(OC[C@H](C)CC(=O)O)c2Cl)nc2c(OC3(C)CC3)ncnc21 (single isomer, unassigned; isomer 2) [Example 51, 4-(2-Chloro-3-(9-(5-chloro-2-methoxybenzyl)-6-(1-methylcyclopropoxy)-9H-purin-8-yl)phenoxy)-3-methylbutanoic acid (isomer 2)] | – | – | IC50 (DLD-1 cells; DLD-1, 168 h, DLD-1 (BRCA2 wt control), 7 days, Cell Titre Glo 3D, read-out: POLQ PD Prolif Lumin DLD1 Mean pIC50 (converted)): > 10000 nM; IC50 (DLD-1 BRCA2−/− cells; DLD-1, 288 h, DLD-1 BRCA2−/−, 12 days, Cell Titre Glo 3D, read-out: POLQ PD Prolif Lumin BRCA2 −/− Mean pIC50 (converted)): 7.94 nM
9 | COc1ccc(-c2nc3cc(OC(C)C)ccc3n2Cc2ccccc2)c(Cl)c1 [Example A12, 1-benzyl-2-(2-chloro-4-methoxyphenyl)-5-isopropoxy-1H-benzo[d]imidazole] | > 10000 nM | 2000 nM | –
10 | CC1(Oc2ncnc3c2nc(-c2ccc(OCCCN4CC[C@@H](O)C4)cc2Cl)n3Cc2cc(C(F)F)ccn2)CC1 [Example T568, (R)-1-(3-(3-chloro-4-(9-((4-(difluoromethyl)pyridin-2-yl)methyl)-6-(1-methylcyclopropoxy)-9H-purin-8-yl)phenoxy)propyl)pyrrolidin-3-ol] | – | – | IC50 (DLD-1 cells; [7]): > 10000 nM; IC50 (DLD-1 BRCA2−/− cells; [8]): 794 nM
11 | CC1(Oc2ncnc3c2nc(-c2ccc(OCCN4CCNCC45CC5)cc2Cl)n3Cc2ccccc2)CC1 [Example R22, 8-(4-(2-(4,7-diazaspiro[2.5]octan-4-yl)ethoxy)-2-chlorophenyl)-9-benzyl-6-(1-methylcyclopropoxy)-9H-purine] | 3160 nM | 251 nM | –
12 | CC1(Oc2ncnc3c2nc(-c2cccc(OCCCCCC(=O)O)c2Cl)n3Cc2cccc(Cl)c2)CC1 [Example T440, 6-(2-chloro-3-(9-(3-chlorobenzyl)-6-(1-methylcyclopropoxy)-9H-purin-8-yl)phenoxy)hexanoic acid] | – | – | IC50 (DLD-1 cells; [1]): > 10000 nM; IC50 (DLD-1 BRCA2−/− cells; [2]): 25.1 nM
13 | CC1(Oc2ncnc3c2nc(-c2ccc(OCCN4C[C@H]5C[C@@H]4CN5)cc2Cl)n3Cc2ccccc2)CC1 [Example R20, 8-(4-(2-((1R,4R)-2,5-diazabicyclo[2.2.1]heptan-2-yl)ethoxy)-2-chlorophenyl)-9-benzyl-6-(1-methylcyclopropoxy)-9H-purine] | 2510 nM | 200 nM | –
14 | Cc1ccnc(Cn2c(-c3ccc(O[C@H]4CCNC4=O)cc3Cl)nc3c(OC4(C)CC4)ncnc32)c1 [Example T185, (S)-3-(3-chloro-4-(6-(1-methylcyclopropoxy)-9-((4-methylpyridin-2-yl)methyl)-9H-purin-8-yl)phenoxy)pyrrolidin-2-one] | – | – | IC50 (DLD-1 cells; [7]): > 10000 nM; IC50 (DLD-1 BRCA2−/− cells; [8]): 501 nM
15 | CC1(Oc2ncnc3c2nc(-c2ccc(OCCCN4CC(O)C4)cc2Cl)n3Cc2ccccc2)CC1 [Example H17, 1-(3-(4-(9-benzyl-6-(1-methylcyclopropoxy)-9H-purin-8-yl)-3-chlorophenoxy)propyl)azetidin-3-ol] | 2000 nM | 63.1 nM | –
16 | CN1CCN(CCOc2ccc(-c3nc4c(OC5(C)CC5)ncnc4n3Cc3ccccc3)c(F)c2)CC1 [Example H2, 9-benzyl-8-(2-fluoro-4-(2-(4-methylpiperazin-1-yl)ethoxy)phenyl)-6-(1-methylcyclopropoxy)-9H-purine] | 3160 nM | 126 nM | –
17 | C[C@H](CCOc1ccc(-c2nc3c(OC4(C)CC4)ncnc3n2Cc2cccc(C#N)c2)c(Cl)c1)C(=O)O [Example T401, (R)-4-(3-chloro-4-(9-(3-cyanobenzyl)-6-(1-methylcyclopropoxy)-9H-purin-8-yl)phenoxy)-2-methylbutanoic acid] | – | – | IC50 (DLD-1 cells; [1]): > 10000 nM; IC50 (DLD-1 BRCA2−/− cells; [2]): 398 nM
18 | CNCCCOc1ccc(-c2nc3c(OC4(C)CC4)ncnc3n2Cc2cc(Cl)ccn2)c(Cl)c1 [Example T134, 3-(3-chloro-4-(9-((4-chloropyridin-2-yl)methyl)-6-(1-methylcyclopropoxy)-9H-purin-8-yl)phenoxy)-N-methylpropan-1-amine] | – | – | IC50 (DLD-1 cells; [7]): > 10000 nM; IC50 (DLD-1 BRCA2−/− cells; [8]): 126 nM
19 | CN1CCN(CCOc2ccc(-c3nc4c(OC5(C)CC5)ncnc4n3CCc3ccccc3)c(Cl)c2)CC1 [Example E4, 8-(2-chloro-4-(2-(4-methylpiperazin-1-yl)ethoxy)phenyl)-6-(1-methylcyclopropoxy)-9-phenethyl-9H-purine] | 7940 nM | 200 nM | –
20 | Cc1cnc(Cn2c(-c3ccc(OC4CCCN(C)CC4)cc3Cl)nc3c(OC4(C)CC4)ncnc32)s1 (single isomer, unassigned) [Example T389, 2-((8-(2-chloro-4-((1-methylazepan-4-yl)oxy)phenyl)-6-(1-methylcyclopropoxy)-9H-purin-9-yl)methyl)-5-methylthiazole] | – | – | IC50 (DLD-1 cells; [5]): > 10000 nM; IC50 (DLD-1 BRCA2−/− cells; [6]): 316 nM
21 | COc1ccc(Cl)cc1Cn1c(-c2ccc(OCC(C)CC(=O)O)cc2Cl)nc2c(OC3(C)CC3)ncnc21 (racemic) [Example U42, 4-(3-chloro-4-(9-(5-chloro-2-methoxybenzyl)-6-(1-methylcyclopropoxy)-9H-purin-8-yl)phenoxy)-3-methylbutanoic acid] | – | – | IC50 (DLD-1 cells; DLD-1, DLD1 BRCA2 wt, mean, read-out: POLQ PD Prolif Lumin DLD1 mean pIC50 (converted)): > 10000 nM; IC50 (DLD-1 BRCA2−/− cells; DLD-1, DLD-1 BRCA2 −/−, mean, read-out: POLQ PD Prolif Lumin BRCA2 −/− mean pIC50 (converted)): 39.8 nM
22 | Cc1ccnc(Cn2c(-c3ccc(CCC(N)=O)cc3Cl)nc3c(OC4(C)CC4)ncnc32)c1 [Example T116, 3-(3-chloro-4-(6-(1-methylcyclopropoxy)-9-((4-methylpyridin-2-yl)methyl)-9H-purin-8-yl)phenyl)propanamide] | – | – | IC50 (DLD-1 cells; [7]): > 10000 nM; IC50 (DLD-1 BRCA2−/− cells; [8]): 631 nM
23 | CC1(Oc2ncnc3c2nc(-c2ccc(OCCN4CCNCC4)cc2Cl)n3Cc2cc(C(F)F)ccn2)CC1 [Example T488, 8-(2-chloro-4-(2-(piperazin-1-yl)ethoxy)phenyl)-9-((4-(difluoromethyl)pyridin-2-yl)methyl)-6-(1-methylcyclopropoxy)-9H-purine] | – | – | IC50 (DLD-1 cells; [7]): > 10000 nM; IC50 (DLD-1 BRCA2−/− cells; [8]): 1000 nM
24 | CC(=O)N1CC(Oc2cc(C)c(-c3nc4c(OC5(C)CC5)ncnc4n3Cc3ccccc3)cn2)C1 [Example G10, 1-(3-((5-(9-benzyl-6-(1-methylcyclopropoxy)-9H-purin-8-yl)-4-methylpyridin-2-yl)oxy)azetidin-1-yl)ethan-1-one] | > 10000 nM | 631 nM | –
25 | Cc1cc(OCCCN2CCOCC2)ncc1-c1nc2c(OC3(C)CC3)ncnc2n1Cc1ccccc1 [Example G7, 4-(3-((5-(9-benzyl-6-(1-methylcyclopropoxy)-9H-purin-8-yl)-4-methylpyridin-2-yl)oxy)propyl)morpholine] | > 10000 nM | 398 nM | –
26 | Cc1cc(OCCN2CCNCC2)ncc1-c1nc2c(OC3(C)CC3)ncnc2n1Cc1ccccc1Cl [Example J5, 9-(2-chlorobenzyl)-8-(4-methyl-6-(2-(piperazin-1-yl)ethoxy)pyridin-3-yl)-6-(1-methylcyclopropoxy)-9H-purine] | > 10000 nM | 1000 nM | –
